Data: patent US11993591B2, “Chromen-4-one derivatives for the treatment and prophylaxis of hepatitis B virus disease” (Hoffmann-La Roche Inc., priority 2018, dated 2024)

test system: HBV (extracellular HBsAg) in primary human hepatocytes; assay: Cryopreserved Primary Human Hepatocytes (PHH) HBV infection assay; assay type: cell-based; conditions: Hepatitis B virus, Hepatocyte, 216 h; extracellular HBsAg (CLIA), HBV-infected cryopreserved PHH, 9 days post-compound treatment
Procedure: This assay is used to confirm the anti-HBV effect of the compounds in HBV PHH infection assay. Cryopreserved PHH (BioreclamationIVT, Lot YJM) was thawed at 37° C. and gently transferred into pre-warmed InVitroGRO HT medium (BioreclamationIVT, Cat. S03317).
The mixture was centrifuged at 70 relative centrifugal force (RCF) for 3 mins at RT, and the supernatant was discarded. Pre-warmed InVitroGRO CP medium (BioreclamationIVT, Cat #S03316) was added to the cell pellet to gently re-suspend cells. The cells were seeded at the density of 5.8×10^4 cells per well to collagen I coated 96-well plate (Gibco, Cat. A1142803) with the InVitroGRO CP medium. All plates were incubated at 37° C. with 5% CO2 and 85% humidity.
At 20 hours after plating, the medium was changed to PHH culture medium (Dulbecco's Modified Eagle Medium (DMEM)/F12 (1:1) (Gibco, Cat. 11320-033), 10% fetal bovine serum (Gibco Cat. 10099141), 100 U/mL penicillin, 100 μg/mL streptomycin (Gibco, Cat. 151401-122), […] (Invitrogen Cat. PHG0311L), 20 ng/mL dexamethasone (Sigma, Cat. D4902) and 250 ng/mL human recombinant insulin (Gibco, Cat. 12585-014)). And the cells were incubated at 37° C. with 5% CO2 and 85% humidity for 4 hours. The medium was then changed to pre-warmed PHH culture medium containing 4% polyethylene glycol (PEG) MW8000 (Sigma, Cat. P1458-50ML) and 1% DMSO (Sigma, Cat. D2650). 5.8×10^6 genomic equivalents of HBV were added into the medium.
At 24 hours post-infection, the cells were gently washed with PBS and refreshed with PHH culture medium supplemented with 1% DMSO, and 0.25 mg/mL Matrix gel (Corning, Cat. 356237) at 200 μL per well. All plates were immediately placed in at 37° C. CO2 incubator. 24 hours later, serial dilutions of compounds made with DMSO were further diluted with the same culture medium (PHH culture medium supplemented with 1% DMSO and 0.25 mg/mL Matrix gel as described above) before they were added to the cells to reach desired final compound concentrations and 1% DMSO concentration. The medium containing the compounds were refreshed every three days.
At 9 days post-compound treatment, extracellular HBsAg level were measured with Chemiluminescence Immuno Assay (CLIA) kit (Autobio, HBsAg Quantitative CLIA). Extracellular HBV DNA was extracted by MagNA Pure 96 system (Roche) and then determined by quantitative PCR with the following primers and probe: […]
HBsAg IC50 and HBV DNA IC50 values were derived from the dose-response curve using 4 parameter logistic curve fit method.

Row | Structure (SMILES) | IC50
1 | O=C(c1cc(=O)c2cccc(Cl)c2o1)N1Cc2ccc(Br)cc2C1 [Example 4, 2-(5-bromoisoindoline-2-carbonyl)-8-chloro-chromen-4-one] | 6.58 µM
2 | O=C(c1cc(=O)c2cccc(Cl)c2o1)N1CCc2ccc(Cl)cc2C1 [Example 16, 8-Chloro-2-(7-chloro-3,4-dihydro-1H-isoquinoline-2-carbonyl)chromen-4-one] | 40.3 µM
3 | Cc1cc(Cl)ccc1NC(=O)c1cc(=O)c2cc(Cl)cc(Cl)c2o1 [Example 13, 6,8-dichloro-N-(4-chloro-2-methylphenyl)-4-oxo-chromene-2-carboxamide] | 36.3 µM
4 | Cc1ccccc1NC(=O)c1cc(=O)c2cccc(Cl)c2o1 [Example 15, 8-chloro-4-oxo-N-(o-tolyl)-chromene-2-carboxamide] | 37.6 µM
5 | O=C(O)C1CC(OCCOc2ccc3c(c2)CCN(c2cc(=O)c4cccc(Cl)c4o2)C3)C1 (stereo not drawn) [Example 36, 3-[2-[[2-(8-chloro-4-oxo-chromen-2-yl)-3,4-dihydro-1H-isoquinolin-6-yl]oxy]ethoxy]cyclobutanecarboxylic Acid] | 0.61 µM
6 | Cc1cc(OCCOC2CC(C(=O)O)C2)ccc1NC(=O)c1cc(=O)c2cccc(Cl)c2o1 (stereo not drawn) [Example 2, 3-(2-(4-(8-chloro-4-oxo-chromene-2-carboxamido)-3-methylphenoxy)ethoxy)cyclobutanecarboxylic Acid] | 4.36 µM
7 | Cc1cc(OCCOCC(=O)O)ccc1NC(=O)c1cc(=O)c2cccc(Cl)c2o1 [Example 19, 2-(2-(4-(8-chloro-4-oxo-chromene-2-carboxamido)-3-methylphenoxy)ethoxy)acetic Acid] | 31.6 µM
8 | Cc1cc(Cl)ccc1NC(=O)c1oc2ccc(Cl)cc2c(=O)c1C [Example 3, 6-chloro-N-(4-chloro-2-methylphenyl)-3-methyl-4-oxo-chromene-2-carboxamide] | 6.47 µM
9 | Cc1cc(C(=O)O)ccc1NC(=O)c1cc(=O)c2cccc(Cl)c2o1 [Example 18, 4-(8-chloro-4-oxo-chromene-2-carboxamido)-3-methylbenzoic Acid] | 43 µM
10 | Cc1cc(Br)cnc1NC(=O)c1cc(=O)c2cccc(Cl)c2o1 [Example 10, N-(5-bromo-3-methylpyridin-2-yl)-8-chloro-4-oxo-chromene-2-carboxamide] | 24.3 µM
11 | COc1ccc2c(c1)CCN(C(=O)c1cc(=O)c3cccc(Cl)c3o1)C2 [Example 14, 8-Chloro-2-(6-methoxy-3,4-dihydro-1H-isoquinoline-2-carbonyl)chromen-4-one] | 36.3 µM
12 | O=C(Nc1ccc(Cl)cc1OC1CC(C(=O)O)C1)c1cc(=O)c2cccc(Cl)c2o1 (stereo not drawn) [Example 7, 3-(5-chloro-2-(8-chloro-4-oxo-chromene-2-carboxamido)phenoxy)cyclobutane-1-carboxylic Acid] | 10 µM
13 | O=C(Nc1ccc(OCCOC2CC(C(=O)O)C2)cc1C(F)(F)F)c1cc(=O)c2cccc(Cl)c2o1 (stereo not drawn) [Example 5, 3-(2-(4-(8-chloro-4-oxo-chromene-2-carboxamido)-3-(trifluoromethyl)phenoxy)ethoxy)cyclobutanecarboxylic Acid] | 7.42 µM
14 | O=C(Nc1ccc(Cl)cc1C(F)(F)F)c1cc(=O)c2cccc(Cl)c2o1 [Example 12, 8-chloro-N-(4-chloro-2-(trifluoromethyl)phenyl)-4-oxo-chromene-2-carboxamide] | 34.2 µM
15 | O=C(O)COCCOC1CC2CCC(C1)N2c1cc(=O)c2cccc(Cl)c2o1 (stereo not drawn) [Example 39, 2-(2-((8-(8-chloro-4-oxo-chromen-2-yl)-8-azabicyclo[3.2.1]octan-3-yl)oxy)ethoxy)acetic Acid] | 38.5 µM
16 | O=C(NCc1ccc(Cl)cc1Cl)c1cc(=O)c2cccc(Cl)c2o1 [Example 9, 8-chloro-N-(2,4-dichlorobenzyl)-4-oxo-chromene-2-carboxamide] | 14.1 µM
17 | O=C(Nc1nnc(C(F)(F)F)s1)c1cc(=O)c2cccc(Cl)c2o1 [Example 6, 8-chloro-4-oxo-N-(5-(trifluoromethyl)-1,3,4-thiadiazol-2-yl)-chromene-2-carboxamide] | 9.53 µM
18 | CC1c2ccc(OCCOC3CC(C(=O)O)C3)cc2CCN1c1cc(=O)c2cccc(Cl)c2o1 (stereo not drawn) [Example 40, 3-[2-[[2-(8-chloro-4-oxo-chromen-2-yl)-1-methyl-3,4-dihydro-1H-isoquinolin-6-yl]oxy]ethoxy]cyclobutanecarboxylic Acid] | 34.6 µM
19 | O=C(O)c1cccc(CN2CCN(c3cc(=O)c4cccc(Cl)c4o3)CC2)c1 [Example 38, 3-((4-(8-chloro-4-oxo-chromen-2-yl)piperazin-1-yl)methyl)benzoic Acid] | 38.5 µM
20 | O=C(O)C1CC(OCCOc2ccc3c(c2)CN(c2cc(=O)c4cccc(Cl)c4o2)C3)C1 (stereo not drawn) [Example 37, 3-[2-[2-(8-chloro-4-oxo-chromen-2-yl)isoindolin-5-yl]oxyethoxy]cyclobutanecarboxylic Acid] | 1.06 µM
21 | O=C(Nc1ccc(OCCOC2CC(C(=O)O)C2)cc1F)c1cc(=O)c2cccc(Cl)c2o1 (stereo not drawn) [Example 1, 3-(2-(4-(8-chloro-4-oxo-chromene-2-carboxamido)-3-fluorophenoxy)ethoxy)cyclobutanecarboxylic Acid] | 2.86 µM

test system: HBV cccDNA (HBeAg level) in HepDES19 cells; assay: Engineered HepDES19 primary screen assay (HBeAg as surrogate marker for cccDNA); assay type: cell-based; conditions: Hepatitis B virus, HepDES19, 120 h
Description: The assay was employed to screen for novel cccDNA inhibitors. HepDES19 is a cccDNA-producing cell line. In this cell line, HBeAg in the cell culture supernatant as surrogate marker, as HBeAg production depends on cccDNA level and activity. HepDES19 is an engineered cell line which contains a 1.1 unit length HBV genome, and pgRNA transcription from the transgene is controlled by Tetracycline (Tet). In the absence of Tet, pgRNA transcription will be induced, but HBV e antigen (HBeAg) could not be produced from this pgRNA due to very short leader sequence before the HBeAg start codon and the start codon is disrupted. Only after cccDNA is formed, the missing leader sequence and start codon mutation would be restored from the 3′-terminal redundancy of pgRNA, and then HBeAg could be synthesized. Therefore, HBeAg could be used as a surrogate marker for cccDNA (Zhou, T. et al., Antiviral Res. (2006), 72(2), 116-124; Guo, H. et al., J. Virol. (2007), 81(22), 12472-12484).
HepDES19 cells were seeded at 2×10^6 cells per T150 flask and cultured with the culture medium (Dulbecco's Modified Eagle Medium: Nutrient Mixture F-12 [DMEM-F12, Gibco Cat. 11320-82], 10% Fetal Bovine Serum [FBS, Clontech Cat. 631101], 0.1 mM Non-Essential Amino Acids Solution [NEAA, Gibco Cat. 11140-050], 50 μg/mL Penicillin-Streptomycin [PS, Invitrogen Cat. 15140-163], 500 μg/mL Geneticin [G418, Invitrogen Cat. 10131-027]) containing 3 μg/mL Tet (Sigma, Cat. 87128) for 5 days. Cells were then seeded at 4×10^6 cells per T150 in the same culture medium as described above in the absence of Tet for 8 days. Cells were then harvested and frozen at density of 2×10^6 cells per mL. For compound testing, the frozen cells were thawed and seeded into 96-well plates at a density of 6×10^4 cells per well. At 24 hours after seeding, half log serial dilutions of compounds made with Dimethyl sulfoxide (DMSO, Sigma, Cat. D2650) were further diluted with the same culture medium as described above before they were added to the cells to reach desired final compound concentrations and 1% DMSO concentration. Plates were then incubated at 37° C. for another 5 days before measurement of HBeAg level and cell viability. Intracellular HBeAg level were measured with enzyme-linked immunosorbent assay (ELISA) kit (Shanghai Kehua Diagnostic Medical Products Co., Ltd). Cell viability was assessed using Cell Counting Kit-8 (Donjindo, Cat. CK04-20). IC50 values were derived from the dose-response curve using 4 parameter logistic curve fit method.
The compounds of the present invention were tested for their capacity to inhibit extracellular HBeAg level as described herein.

Row | Structure (SMILES) | IC50
22 | O=C(c1cc(=O)c2cccc(Cl)c2o1)N1Cc2ccc(Br)cc2C1 [Example 4, 2-(5-bromoisoindoline-2-carbonyl)-8-chloro-chromen-4-one] | 3.6 µM
23 | Cc1cc(Cl)ccc1NC(=O)c1oc2ccc(Cl)cc2c(=O)c1C [Example 3, 6-chloro-N-(4-chloro-2-methylphenyl)-3-methyl-4-oxo-chromene-2-carboxamide] | 0.64 µM
24 | O=C(Nc1ccc(Cl)cc1OC1CC(C(=O)O)C1)c1cc(=O)c2cccc(Cl)c2o1 (stereo not drawn) [Example 7, 3-(5-chloro-2-(8-chloro-4-oxo-chromene-2-carboxamido)phenoxy)cyclobutane-1-carboxylic Acid] | 1.66 µM
